Consider 68 sequences from the supplement of paper PMC11208160.

This series is described as follows: recombinant UMI read abundance after kanamycin selection (control-corrected) (log10(CPM+1)); higher = more efficient recombination; extreme values may be limits of the assay; sequences stand for … in AGTGCAGAGAAAATCGGCCAGTTTTCTCTGCCTGCAGTCCGCATGCCGTGGGACCCCTTGGGTTCTAACCTGTTGCCTAGATTTATGCAGCGGACTGCCTTTCTCCCAAAGTGATAAACCGG…AGGTTGGTTTCACT; site = the 11-nt donor. The gist of the method: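 Sequencing read counts were converted to CPM, averaged over two replicates and scaled by control-derived factors. Results are given as log10(CPM+1). The reads covered the donor–target junction of recombinant UMIs from a pooled Escherichia coli screen of donor and donor-binding-loop pairs for the IS621 bridge recombinase.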
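Further: IS621 bridge recombinase in Escherichia coli cells against a fixed T5 target plasmid.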

In the case of “CCTCAAGCATGGACCGGTTTTCCCGGTAATCCGTATTTGAT (site CCTAAAGCTAT)”, the “recombinant UMI read abundance (log10)” value stood at 0. Take “CCTCAAGCATGGACCGGTTTTCCCGGTAATCCGTATTTGAT (site CCTCAAGCTAT)”: the “recombinant UMI read abundance (log10)” value was determined as 0.0413. As for “CCTCAAGCATGGACCGGTTTTCCCGGTAATCCGTATTTGAT (site CCTGAAGCTAT)”, the figure is 0.00432; as for “CCTCAAGCATGGACCGGTTTTCCCGGTAATCCGTATTTGAT (site CCTTAAGCTAT)”, 0. As for “CCTCACTCATGGACCGGTTTTCCCGGTAATCCGTATTTGCT (site CCTCACTCTAG)”, the “recombinant UMI read abundance (log10)” value came out at 0.747.

For the sequence “CCTCCGGCATGGACCGGTTTTCCCGGTAATCCGTATTTGGT (site CCTCCGGCTAC)”, the “recombinant UMI read abundance (log10)” value stood at 0.0132. Regarding “CCTCGATCATGGACCGGTTTTCCCGGTAATCCGTATTTGGC (site CCTCGATCTGC)”, the “recombinant UMI read abundance (log10)” value came out at 0. The value for “CCTCGGACATGGACCGGTTTTCCCGGTAATCCGTATTTGGT (site CCTCGGACTAC)” was 0.013; that for “CCTCGTACATGGACCGGTTTTCCCGGTAATCCGTATTTGAG (site CCTCGTACTCT)” was 0.0191. In the case of “CCTGCAGCATGGACCGGTTTTCCCGGTAATCCGTATTTGGC (site CCTGCAGCTGC)”, the “recombinant UMI read abundance (log10)” value was 0. The value for “CCTGGTTCATGGACCGGTTTTCCCGGTAATCCGTATTTGAC (site CCTGGTTCTGT)” was 0; that for “CCTGTCGCATGGACCGGTTTTCCCGGTAATCCGTATTTGAA (site CCTGTCGCTTT)” was 0.0175; that for “CCTGTCGCATGGACCGGTTTTCCCGGTAATCCGTATTTGAC (site CCTGTCGCTGT)” was 0. Regarding “CCTTAACCATGGACCGGTTTTCCCGGTAATCCGTATTTGCT (site CCTTAACCTAG)”, the “recombinant UMI read abundance (log10)” value was found to be 0. With “CCTTACGCATGGACCGGTTTTCCCGGTAATCCGTATTTGGC (site CCTTACGCTGC)”, the “recombinant UMI read abundance (log10)” value came out at 0. Take “CCTTATACATGGACCGGTTTTCCCGGTAATCCGTATTTGGG (site CCTTATACTCC)”: the “recombinant UMI read abundance (log10)” value is 0.016. As for “CCTTATACATGGACCGGTTTTCCCGGTAATCCGTATTTGGT (site CCTTATACTAC)”, the figure is 0.00722; as for “CCTTCTGCATGGACCGGTTTTCCCGGTAATCCGTATTTGGA (site CCTTCTGCTTC)”, 0.00377; as for “CCTTTCGCATGGACCGGTTTTCCCGGTAATCCGTATTTGAT (site CCTTTCGCTAT)”, 0.0105. As for “CCTTTCTCATGGACCGGTTTTCCCGGTAATCCGTATTTGGG (site CCATTCTCTCC)”, the figure is 0.00388. Regarding “CCTTTCTCATGGACCGGTTTTCCCGGTAATCCGTATTTGGG (site CCCTTCTCTCC)”, the “recombinant UMI read abundance (log10)” value came out at 0.0264. The value for “CCTTTCTCATGGACCGGTTTTCCCGGTAATCCGTATTTGGG (site CCGTTCTCTCC)” was 0.011. The value for “CCTTTCTCATGGACCGGTTTTCCCGGTAATCCGTATTTGGG (site CCTTTCTCTCC)” was 0; that for “CCTTTGGCATGGACCGGTTTTCCCGGTAATCCGTATTTGCT (site CATTTGGCTAG)” was 0.00684; that for “CCTTTGGCATGGACCGGTTTTCCCGGTAATCCGTATTTGCT (site CCTTTGGCTAG)” was 0.00901. The value for “CCTTTGGCATGGACCGGTTTTCCCGGTAATCCGTATTTGCT (site CGTTTGGCTAG)” was 0; that for “CCTTTGGCATGGACCGGTTTTCCCGGTAATCCGTATTTGCT (site CTTTTGGCTAG)” was 0.00684. “CGAAAACCATGGACCGGTTTTCCCGGTAATCCGTATTTGTT (site CGAAAACCTAA)”: the “recombinant UMI read abundance (log10)” value came out at 0. Consider “CGAAAACCATGGACCGGTTTTCCCGGTAATCCGTATTTGTT (site CGGAATCCTAA)”, for which the “recombinant UMI read abundance (log10)” value worked out at 0. Take “CGAACATCATGGACCGGTTTTCCCGGTAATCCGTATTTGAT (site CGAACATCTAT)”: the “recombinant UMI read abundance (log10)” value stood at 1.63.

As to “CGAACATCATGGACCGGTTTTCCCGGTAATCCGTATTTGAT (site CGATCATCTAG)”, the “recombinant UMI read abundance (log10)” value turned out to be 0.

Turning to “CGAAGTGCATGGACCGGTTTTCCCGGTAATCCGTATTTGGG (site CGAAGTGCTCC)”, the “recombinant UMI read abundance (log10)” value worked out at 0.671.

Turning to “CGAATGCCATGGACCGGTTTTCCCGGTAATCCGTATTTGAC (site CGAATGCCTGT)”, the “recombinant UMI read abundance (log10)” value was determined as 0.465. As for “CGACCATCATGGACCGGTTTTCCCGGTAATCCGTATTTGCT (site CGAACATCTAG)”, the figure is 1.13. As for “CGACCATCATGGACCGGTTTTCCCGGTAATCCGTATTTGCT (site CGACCATCTAG)”, the “recombinant UMI read abundance (log10)” value stood at 2.13.

For the sequence “CGACCATCATGGACCGGTTTTCCCGGTAATCCGTATTTGCT (site CGAGCATCTAG)”, the “recombinant UMI read abundance (log10)” value worked out at 0. The value for “CGACCATCATGGACCGGTTTTCCCGGTAATCCGTATTTGCT (site CGATCATCTAG)” was 0; that for “CGACGCGCATGGACCGGTTTTCCCGGTAATCCGTATTTGGG (site CGACGCGCTCC)” was 0.672; that for “CGACTATCATGGACCGGTTTTCCCGGTAATCCGTATTTGTG (site CGACTATCTCA)” was 3.11.

Take “CGACTCTCATGGACCGGTTTTCCCGGTAATCCGTATTTGAC (site CGACTCTCTGT)”: the “recombinant UMI read abundance (log10)” value was determined as 2.88. For “CGAGAACCATGGACCGGTTTTCCCGGTAATCCGTATTTGAT (site CGAGAACCTAT)”, the “recombinant UMI read abundance (log10)” value was found to be 0. As for “CGAGAACCATGGACCGGTTTTCCCGGTAATCCGTATTTGAT (site CGCGAACCTAT)”, the figure is 0; as for “CGAGAACCATGGACCGGTTTTCCCGGTAATCCGTATTTGAT (site CGGGAACCTAT)”, 0.

“CGAGAACCATGGACCGGTTTTCCCGGTAATCCGTATTTGAT (site CGTGAACCTAT)”: the “recombinant UMI read abundance (log10)” value was 0. The value for “CGAGCACCATGGACCGGTTTTCCCGGTAATCCGTATTTGCT (site CGAGCACCTAG)” was 0; that for “CGAGCGACATGGACCGGTTTTCCCGGTAATCCGTATTTGTT (site CGAACGACTAA)” was 0.607. As for “CGAGCGACATGGACCGGTTTTCCCGGTAATCCGTATTTGTT (site CGACCGACTAA)”, the “recombinant UMI read abundance (log10)” value amounted to 0.0145. As for “CGAGCGACATGGACCGGTTTTCCCGGTAATCCGTATTTGTT (site CGAGCGACTAA)”, the figure is 1.49; as for “CGAGCGACATGGACCGGTTTTCCCGGTAATCCGTATTTGTT (site CGATCGACTAA)”, 0.0192. The value for “CGAGCGCCATGGACCGGTTTTCCCGGTAATCCGTATTTGTG (site CAAGCGCCTCA)” was 0.0595; that for “CGAGCGCCATGGACCGGTTTTCCCGGTAATCCGTATTTGTG (site CCAGCGCCTCA)” was 0.0345; that for “CGAGCGCCATGGACCGGTTTTCCCGGTAATCCGTATTTGTG (site CGAGCGCCTCA)” was 0.219. Consider “CGAGCGCCATGGACCGGTTTTCCCGGTAATCCGTATTTGTG (site CTAGCGCCTCA)”, for which the “recombinant UMI read abundance (log10)” value is 0.0326. Take “CGAGGAACATGGACCGGTTTTCCCGGTAATCCGTATTTGGG (site CGAGGAACTCC)”: the “recombinant UMI read abundance (log10)” value came to 1.53.

“CGAGGAACATGGACCGGTTTTCCCGGTAATCCGTATTTGGG (site CGAGGACCTCC)”: the “recombinant UMI read abundance (log10)” value is 0.0124. As for “CGAGGAACATGGACCGGTTTTCCCGGTAATCCGTATTTGGG (site CGAGGAGCTCC)”, the figure is 0.376; as for “CGAGGAACATGGACCGGTTTTCCCGGTAATCCGTATTTGGG (site CGAGGATCTCC)”, 1.59.

On to “CGAGGAACATGGACCGGTTTTCCCGGTAATCCGTATTTGTT (site CGAGGAACTAA)”, for which the “recombinant UMI read abundance (log10)” value was determined as 2.78. The value for “CGAGGAACATGGACCGGTTTTCCCGGTAATCCGTATTTGTT (site CGCGGAACTAA)” was 0.0367; that for “CGAGGAACATGGACCGGTTTTCCCGGTAATCCGTATTTGTT (site CGGGGAACTAA)” was 0.474; that for “CGAGGAACATGGACCGGTTTTCCCGGTAATCCGTATTTGTT (site CGTGGAACTAA)” was 1.82. Turning to “CGAGGACCATGGACCGGTTTTCCCGGTAATCCGTATTTGGG (site AGAGGACCTCC)”, the “recombinant UMI read abundance (log10)” value was 0.00643. As for “CGAGGACCATGGACCGGTTTTCCCGGTAATCCGTATTTGGG (site CAAGGACCTCC)”, the “recombinant UMI read abundance (log10)” value turned out to be 0.019. Take “CGAGGACCATGGACCGGTTTTCCCGGTAATCCGTATTTGGG (site CCAGGACCTCC)”: the “recombinant UMI read abundance (log10)” value stood at 0.059.

As for “CGAGGACCATGGACCGGTTTTCCCGGTAATCCGTATTTGGG (site CGAAGACCTCC)”, the “recombinant UMI read abundance (log10)” value worked out at 0. The value for “CGAGGACCATGGACCGGTTTTCCCGGTAATCCGTATTTGGG (site CGACGACCTCC)” was 0.00414; that for “CGAGGACCATGGACCGGTTTTCCCGGTAATCCGTATTTGGG (site CGAGAACCTCC)” was 0.0154. The value for “CGAGGACCATGGACCGGTTTTCCCGGTAATCCGTATTTGGG (site CGAGCACCTCC)” was 0.
